Experimental data reported in article PMC4607679, “Intestinal Absorption of Ergostane and Lanostane Triterpenoids from Antrodia cinnamomea Using Caco-2 Cell Monolayer Model” (Natural Products and Bioprospecting, 2015).
Entries after “also recorded” stand apart in the source; their conditions may differ. Like-named read-outs stand apart in the source and are kept apart here.

Experiments:
[1] = cited from earlier work
[2] = Bidirectional transport across the Caco-2 cell monolayer (LC/MS/MS); details: human; for efflux ratio at 180 min, 25 µg/mL / efflux ratio at 180 min, 10 µM: Caco-2, Efflux ratio P BA/P AB; for efflux ratio at 180 min, 25 µg/mL: in A. cinnamomea extract (25 µg/mL); for efflux ratio at 180 min, 10 µM: as single compounds
Caco-2 cell monolayer [3] = assay: as above; details: for decrease of PBA in extract compared to the single form: extract versus single compound; for P app P BA: BL to AP; for permeability through the Caco-2 cell layer: pure compounds; for permeability through the Caco-2 cell layer / Efflux ratio P BA/P AB: 10 µM; for Efflux ratio P BA/P AB: as single compounds
Caco-2 cultures = assay: MTS assay on Caco-2 cultures; type: cell-based, human; details: 10 µM
Experimental: The pure compounds 5, 6, 10, 13 and 14 were added into the Caco-2 cultures at a final concentration of 10 µM.

in vitro = details: human; for Papp A→B at 180 min, 25 µg/mL (extract) / Papp B→A at 180 min, 25 µg/mL (extract): Caco-2; for efflux ratio at 180 min, 25 µg/mL: Caco-2, Efflux ratio P BA/P AB
Caco-2 cell monolayer [4] = details: human
[5] = Leakage marker sodium fluorescein transport, AP to BL, Caco-2 monolayer integrity; type: in vitro ADME; details: human
Experimental: The integrity of cell monolayers was also assessed by the transport of the leakage marker sodium fluorescein. On day 21, the Caco-2 monolayers were rinsed twice with pre-warmed HBSS and were then incubated with the same solution at 37 °C for 30 min, on a shaker at 50 rpm. The fluorescein was pre-dissolved in 1 mM NaOH/H2O (1:10, v/v), and then diluted to 1 mM with an appropriate volume of HBSS. The sodium fluorescein and blank HBSS were added to the AP (0.5 mL) and BL side (1.5 mL), respectively. At 30, 60, 90, and 120 min, each 0.3 mL of the solution from BL side was collected, and replaced with an equal volume of HBSS. The sodium fluorescein intensity was determined with a Hitachi F-4500 fluorometer (excitation wavelength 490 nm, emission 525 nm).

[6] = Solubility (stated in words); details: both in the extract and single forms (13 and 14)
[7] = in A. cinnamomea extract (25 µg/mL)

## C=C(CC[C@@H](C)[C@H]1CC[C@H]2C3=C(C(=O)C[C@]12C)[C@@]1(C)CCC(=O)[C@@H](C)[C@@H]1C[C@@H]3O)[C@@H](C)C(=O)O [compound 4, 25R-antcin C]
[1]; rats, after A. cinnamomea
  plasma exposure: much lower plasma concentrations
[2]; Caco-2
  Papp A→B at 180 min, 25 µg/mL (extract): 74.1 ± 19 ×10⁻⁶ cm/s
  Papp B→A at 180 min, 25 µg/mL (extract): 51.3 ± 2.7 ×10⁻⁶ cm/s
[2]
  efflux ratio at 180 min, 25 µg/mL: 0.69

## C=C(CC[C@@H](C)[C@H]1CC[C@H]2C3=C(C(=O)[C@H](O)[C@]12C)[C@@]1(C)CC[C@@H](O)[C@@H](C)[C@@H]1CC3=O)[C@H](C)C(=O)O [compound 6, 25S-antcin H]
[1]; rats, after A. cinnamomea
  plasma exposure: major plasma-exposed components
[2]; Caco-2
  Papp A→B at 180 min, 10 µM: 31.4 ± 5.6 ×10⁻⁶ cm/s
  Papp B→A at 180 min, 10 µM: 92 ± 13.4 ×10⁻⁶ cm/s
  Papp B→A at 180 min, 25 µg/mL (extract): 30.5 ± 3.8 ×10⁻⁶ cm/s
[2]
  efflux ratio at 180 min, 10 µM: > 2
  efflux ratio at 180 min, 25 µg/mL: 0.99
Caco-2 cell monolayer [3]
  decrease of PBA in extract compared to the single form: 50–60%
  permeability through the Caco-2 cell layer: could readily pass through; also recorded: high permeability
Caco-2 cell monolayer [3]; in A. cinnamomea extract (25 µg/mL), AP to BL
  P app P AB: 3.18 ± 0.34 ×10^−5 cm/s
Caco-2 cell monolayer [3]; [7]
  P app P BA: 3.0–3.8 ×10^−5 cm/s
Caco-2 cultures
  toxicity to the cells (MTS assay): non-toxic

## C=C(CC[C@@H](C)[C@H]1CC[C@H]2C3=C(C(=O)C[C@]12C)[C@@]1(C)CCC(=O)[C@@H](C)[C@@H]1CC3=O)[C@H](C)C(=O)O [compound 9, 25S-antcin B]
[1]; rats, after A. cinnamomea
  plasma exposure: much lower plasma concentrations
[2]; Caco-2
  Papp A→B at 180 min, 25 µg/mL (extract): 26.5 ± 5.3 ×10⁻⁶ cm/s
  Papp B→A at 180 min, 25 µg/mL (extract): 27.6 ± 2.7 ×10⁻⁶ cm/s
[2]
  efflux ratio at 180 min, 25 µg/mL: 1.04

## C=C(CC[C@@H](C)[C@H]1CC[C@H]2C3=C(C(=O)[C@H](O)[C@]12C)[C@@]1(C)CC[C@@H](O)[C@@H](C)[C@@H]1CC3=O)[C@@H](C)C(=O)O [compound 5, 25R-antcin H]
[1]; rats, after A. cinnamomea
  plasma exposure: major plasma-exposed components
[2]; Caco-2
  Papp A→B at 180 min, 10 µM: 37.2 ± 4.4 ×10⁻⁶ cm/s
  Papp A→B at 180 min, 25 µg/mL (extract): 39.5 ± 6.4 ×10⁻⁶ cm/s
  Papp B→A at 180 min, 10 µM: 84.1 ± 13.5 ×10⁻⁶ cm/s
  Papp B→A at 180 min, 25 µg/mL (extract): 34.7 ± 3.6 ×10⁻⁶ cm/s
[2]
  efflux ratio at 180 min, 10 µM: > 2
  efflux ratio at 180 min, 25 µg/mL: 0.88
Caco-2 cell monolayer [3]
  Efflux ratio P BA/P AB: 2.26
  decrease of PBA in extract compared to the single form: 50–60%
  permeability through the Caco-2 cell layer: could readily pass through; also recorded: high permeability
Caco-2 cell monolayer [3]; [7]
  P app P BA: 3.0–3.8 ×10^−5 cm/s
Caco-2 cultures
  toxicity to the cells (MTS assay): non-toxic

## C=C(CC[C@@H](C)[C@H]1CC[C@H]2C3=C(C(=O)C[C@]12C)[C@@]1(C)CCC(=O)[C@@H](C)[C@@H]1CC3=O)[C@@H](C)C(=O)O [compound 10, 25R-antcin B]
[1]; rats, after A. cinnamomea
  plasma exposure: much lower plasma concentrations
[2]; Caco-2
  Papp A→B at 180 min, 10 µM: 28.3 ± 4.3 ×10⁻⁶ cm/s
  Papp A→B at 180 min, 25 µg/mL (extract): 41.1 ± 9.2 ×10⁻⁶ cm/s
  Papp B→A at 180 min, 10 µM: 58.5 ± 5.8 ×10⁻⁶ cm/s
  Papp B→A at 180 min, 25 µg/mL (extract): 38.6 ± 3.2 ×10⁻⁶ cm/s
[2]
  efflux ratio at 180 min, 10 µM: > 2
  efflux ratio at 180 min, 25 µg/mL: 0.94
Caco-2 cell monolayer [3]
  Efflux ratio P BA/P AB: 2.07
  decrease of PBA in extract compared to the single form: 50–60%
  permeability through the Caco-2 cell layer: could readily pass through; also recorded: high permeability
Caco-2 cell monolayer [3]; [7]
  P app P BA: 3.0–3.8 ×10^−5 cm/s
Caco-2 cell monolayer [3]; single compound 10 µM, 120 min (Fig. S2)
  metabolites detected in the AP side: two hydrogenated metabolites
Caco-2 cultures
  toxicity to the cells (MTS assay): non-toxic

## CC(C)NCC(O)COc1cccc2ccccc12 (centres unmarked) [propranolol, reference compound]
[2]; Caco-2
  Papp A→B at 30 min: 35.1 ± 10.6 ×10⁻⁶ cm/s
  Papp A→B at 60 min: 37.6 ± 4.5 ×10⁻⁶ cm/s
  Papp A→B at 90 min: 34.3 ± 4.6 ×10⁻⁶ cm/s
  Papp A→B at 120 min: 38.1 ± 3.4 ×10⁻⁶ cm/s
Caco-2 cell monolayer [3]; marker compound, AP to BL (Table S5)
  PAB value of marker compound: 3.81 ± 0.34 × 10^−5 cm/s

## C=C(CC[C@@H](C)[C@H]1CC[C@H]2C3=C(C(=O)C[C@]12C)[C@@]1(C)CC[C@@H](O)[C@](C)(O)[C@@H]1C[C@@H]3O)[C@@H](C)C(=O)O [compound 2, 25R-antcin K]
[1]; rat, in vivo
  plasma exposure: major plasma-exposed components
In vitro
  Papp A→B at 180 min, 25 µg/mL (extract): 57.4 ± 2.7 ×10⁻⁶ cm/s
  Papp B→A at 180 min, 25 µg/mL (extract): 44.8 ± 3 ×10⁻⁶ cm/s
  efflux ratio at 180 min, 25 µg/mL: 0.78
Caco-2 cell monolayer [4]; Caco-2, 25 µg/mL
  transport rate: 112%

## C=C(CC[C@@H](C)[C@H]1CC[C@H]2C3=C(C(=O)C[C@]12C)[C@@]1(C)CC[C@@H](O)[C@](C)(O)[C@@H]1C[C@@H]3O)[C@H](C)C(=O)O [compound 1, 25S-antcin K]
[1]; rat, in vivo
  plasma exposure: major plasma-exposed components
In vitro
  Papp A→B at 180 min, 25 µg/mL (extract): 78 ± 8.6 ×10⁻⁶ cm/s
  Papp B→A at 180 min, 25 µg/mL (extract): 53.2 ± 3.1 ×10⁻⁶ cm/s
  efflux ratio at 180 min, 25 µg/mL: 0.68

## C=C(CC[C@@H](C)[C@H]1CC[C@H]2C3=C(C(=O)C[C@]12C)[C@@]1(C)CCC(=O)[C@@H](C)[C@@H]1CC3)C(C)C(=O)O (mixture of isomers) [compound 11, (R/S)-antcin A]
In vitro
  Papp A→B at 180 min, 25 µg/mL (extract): 79.2 ± 4.2 ×10⁻⁶ cm/s
  Papp B→A at 180 min, 25 µg/mL (extract): 47.9 ± 2.3 ×10⁻⁶ cm/s
  efflux ratio at 180 min, 25 µg/mL: 0.6

## O=C1OC2(c3ccc(O)cc3Oc3cc(O)ccc32)c2ccccc21 [sodium fluorescein]
[5]; 1 mM, day 21 monolayer, read-out: Papp value AP to BL side
  Papp A→B at 1 mM: < 1 ×10⁻⁶ cm/s
[5]; 30 min
  Papp A→B at 30 min, 1 mM: 0.798 ± 0.199 ×10⁻⁶ cm/s
[5]; 60 min
  Papp A→B at 60 min, 1 mM: 0.771 ± 0.144 ×10⁻⁶ cm/s
[5]; 90 min
  Papp A→B at 90 min, 1 mM: 0.765 ± 0.14 ×10⁻⁶ cm/s
[5]; 120 min
  Papp A→B at 120 min, 1 mM: 0.708 ± 0.298 ×10⁻⁶ cm/s

## C=C(CC[C@@H](C)[C@H]1CC[C@H]2C3=C(C(=O)C[C@]12C)[C@@]1(C)CCC(=O)[C@@H](C)[C@@H]1C[C@@H]3O)[C@H](C)C(=O)O [compound 3, 25S-antcin C]
[1]; rats, after A. cinnamomea
  plasma exposure: much lower plasma concentrations
[2]; Caco-2
  Papp A→B at 180 min, 25 µg/mL (extract): 68.2 ± 5.9 ×10⁻⁶ cm/s
  Papp B→A at 180 min, 25 µg/mL (extract): 49.9 ± 2.9 ×10⁻⁶ cm/s
[2]
  efflux ratio at 180 min, 25 µg/mL: 0.73

## CC(C)=CCC[C@@H](C(=O)O)[C@H]1C[C@H](O)[C@@]2(C)C3=CC[C@H]4C(C)(C)[C@H](O)CC[C@]4(C)C3=CC[C@]12C [compound 7, 3β,15α-dihydroxylanosta-7,9(11),24-triene-21-oic acid]
In vitro
  Papp A→B at 180 min, 25 µg/mL (extract): 37.4 ± 4.3 ×10⁻⁶ cm/s
  Papp B→A at 180 min, 25 µg/mL (extract): 35.7 ± 3.8 ×10⁻⁶ cm/s
  efflux ratio at 180 min, 25 µg/mL: 0.96
Caco-2 cell monolayer [4]; Caco-2, 180 min, 25 µg/mL
  transport rate: 38.8%

## C=C(CC[C@@H](C(=O)O)[C@H]1C[C@H](O)[C@@]2(C)C3=CC[C@H]4C(C)(C)[C@@H](O)CC[C@]4(C)C3=CC[C@]12C)C(C)C [compound 8, dehydrosulphurenic acid]
Caco-2 cell monolayer [3]; both in the extract and single forms (13 and 14)
  permeability: very low
Caco-2 cell monolayer [3]; in A. cinnamomea extract
  permeability: poor permeability
[6]
  solubility: very low
